Data on eleven molecules can be found in PubChem BioAssay (NCI).

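Where inhibition never reached the appropriate level, the endpoint shown equals the highest concentration tested. Otherwise, values were interpolated linearly from a five-concentration, 48-hour dose response in 96-well plates. TGI: total growth inhibition.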

Test systems include SNB-78 CNS; SN12C renal; CAKI-1 renal; M19-MEL melanoma; SF-539 CNS; UACC-257 melanoma; LOX IMVI melanoma; HCC-2998 colon; HL-60(TB) leukemia; U251 CNS; XF 498 CNS.
What all share (test): NCI tumour cell line growth inhibition, 48 h

Regarding `CCSCN(C)c1nc(N(C)C)nc(N(C)C)n1`, the TGI with SNB-78 CNS, in the assay with SN12C renal, in the assay with CAKI-1 renal, in the assay with M19-MEL melanoma, with SF-539 CNS and in the assay on UACC-257 melanoma was greater than 100 µM throughout. Also, the TGI is greater than 100 µM in the assay on LOX IMVI melanoma, greater than 100 µM with HCC-2998 colon, 81.9 µM with HL-60(TB) leukemia and greater than 100 µM in the assay on U251 CNS.
Turning to `COc1cc(C2C(Cl)C(=O)N2NC(=O)c2ccc(NC(C)=O)cc2)ccc1O` (stereo unspecified), the TGI with SNB-78 CNS, with SN12C renal, in the assay on CAKI-1 renal, in the assay with M19-MEL melanoma, in the assay on SF-539 CNS and with UACC-257 melanoma was greater than 100 µM each time. In addition, the TGI in the assay with LOX IMVI melanoma, in the assay on XF 498 CNS, in the assay on HL-60(TB) leukemia and in the assay with U251 CNS was greater than 100 µM each time.
With `CCOC(=O)c1cc2c(OCc3ccccc3)c(OC)cc3c2c(n1)N(c1ccc(OC)cc1)C(C)C3` (stereo unspecified), the TGI in the assay on SN12C renal, with CAKI-1 renal, in the assay on M19-MEL melanoma, in the assay on LOX IMVI melanoma, in the assay on XF 498 CNS and in the assay on HCC-2998 colon was greater than 50 µM throughout. In addition, the TGI in the assay with HL-60(TB) leukemia and in the assay with U251 CNS was greater than 50 µM in each case.
`C[S+](C)CC1OC(n2cnc3c(N)ncnc32)C(O)C1O` (stereo unspecified): the TGI in the assay on SNB-78 CNS, in the assay on SN12C renal, in the assay with CAKI-1 renal, with M19-MEL melanoma, with SF-539 CNS and in the assay with UACC-257 melanoma was greater than 225 µM throughout. The TGI with LOX IMVI melanoma, in the assay with XF 498 CNS, in the assay with HCC-2998 colon, with HL-60(TB) leukemia and with U251 CNS was greater than 225 µM throughout.
On to `CN(C)CCNC(=O)c1cccc2cc3cc(O)ccc3nc12`, for which the TGI came out at 18.2 µM with SNB-78 CNS; 4.65 µM in the assay with SN12C renal; 3.68 µM with M19-MEL melanoma; 4.23 µM with SF-539 CNS; 2.94 µM in the assay on UACC-257 melanoma; 2.72 µM with LOX IMVI melanoma. Further, the TGI worked out at 2.51 µM with XF 498 CNS, 8.3 µM with HCC-2998 colon, 2.37 µM in the assay with HL-60(TB) leukemia and 4.46 µM with U251 CNS.
`CC1(C)C2CCC3(OCCO3)C1C(O)C2` (stereo unspecified): the TGI in the assay with SNB-78 CNS, in the assay on CAKI-1 renal, in the assay with M19-MEL melanoma, in the assay with SF-539 CNS, in the assay on UACC-257 melanoma and with LOX IMVI melanoma was greater than 100 µM throughout. In addition, the TGI with XF 498 CNS, with HCC-2998 colon, in the assay on HL-60(TB) leukemia and in the assay on U251 CNS was greater than 100 µM each time.
`O=NN(CCF)C(=O)NC1CC2CCC1C2` (stereo unspecified): the TGI with SNB-78 CNS, in the assay on SN12C renal, with CAKI-1 renal, in the assay with M19-MEL melanoma, in the assay on SF-539 CNS and with UACC-257 melanoma was greater than 100 µM each time. Also, the TGI with LOX IMVI melanoma, in the assay with HCC-2998 colon, in the assay with HL-60(TB) leukemia and with U251 CNS was greater than 100 µM in each case.
Take `COc1ccc2c(c1)OCCc1cn[nH]c1-2`: the TGI in the assay on SNB-78 CNS, with SN12C renal, in the assay on M19-MEL melanoma, in the assay with SF-539 CNS, in the assay with UACC-257 melanoma and with LOX IMVI melanoma was greater than 100 µM each time. The TGI with XF 498 CNS was 73.6 µM; in the assay on HCC-2998 colon it was greater than 100 µM; in the assay on HL-60(TB) leukemia, 36 µM; with U251 CNS it was greater than 100 µM.
Turning to `COc1ccc2nc3c(c(NCCCN(C)C)c2c1)CCCC3`, the TGI with SNB-78 CNS came to 21.4 µM; in the assay with SN12C renal, 47.2 µM; in the assay with CAKI-1 renal it was 27.9 µM; with M19-MEL melanoma, 31 µM; in the assay on SF-539 CNS it was 30.8 µM; in the assay on UACC-257 melanoma, 31.3 µM. For the same molecule, the TGI was 25.8 µM in the assay with LOX IMVI melanoma; 20.4 µM in the assay on XF 498 CNS; 21.5 µM with HCC-2998 colon; 29.6 µM with HL-60(TB) leukemia; 30.1 µM in the assay with U251 CNS.
As for `CC(=O)NNc1nc(C)c(C(=O)NNC(=O)C(=O)Nc2cccc(C(C)=O)c2)s1`, the TGI in the assay on SNB-78 CNS was greater than 100 µM; in the assay with SN12C renal, 35.1 µM; with CAKI-1 renal it was 31.6 µM; in the assay on M19-MEL melanoma, 43.5 µM; in the assay on SF-539 CNS, 39.8 µM; in the assay with UACC-257 melanoma, 49.9 µM. The TGI was 39.1 µM in the assay on LOX IMVI melanoma; 30.6 µM in the assay with XF 498 CNS; 32.5 µM with HCC-2998 colon; 57.9 µM with HL-60(TB) leukemia; 90.4 µM in the assay on U251 CNS.
For the molecule `Cc1ccc(N(O)C(C)(C)C)cc1`, the TGI in the assay on SN12C renal, in the assay on CAKI-1 renal, with M19-MEL melanoma, in the assay with SF-539 CNS, with UACC-257 melanoma and in the assay on LOX IMVI melanoma was greater than 100 µM in each case. For the same molecule, the TGI in the assay with XF 498 CNS, with HCC-2998 colon, with HL-60(TB) leukemia and with U251 CNS was greater than 100 µM each time.
